Laboratory results published in PubChem BioAssay AID180 (DTP/NCI, 2004).
Where “and” joins values, the source holds several entries; their conditions need not be identical. Equal entries are not always repeated.

Tested on: BDF1 mice, Adenocarcinoma 755 s.c., tumor weight T/C
Experiment: NCI In Vivo Anticancer Drug Screen. Data for tumor model Adenocarcinoma 755 (subcutaneous) in B6D2F1 (BDF1) mice
Settings: endpoint: mean tumor weight, higher = larger tumour
Method in brief: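 Transplantable tumor implanted; mice dosed with compound or vehicle; survival or tumor size recorded; ratio of treated to vehicle control reported.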

[1] = dose: 1.5 mg/kg/injection, schedule: Q01DX011 (ip), vehicle: carboxymethylcellulose (CMC)
[2] = dose: 12.5 mg/kg/injection, schedule: Q01DX011 (ip), vehicle: methylcellulose (MC)
[3] = dose: 28.0 mg/kg/injection, schedule: Q01DX011 (ip), vehicle: carboxymethylcellulose (CMC)

For `S=c1nc[nH]c2c1ncn2C1CCCO1` (stereo not given), the T/C (dose: 0.5 mg/kg/injection, schedule: Q01DX011 (ip), vehicle: carboxymethylcellulose (CMC)) was 26 % of control, the T/C (dose: 1.0 mg/kg/injection, schedule: Q01DX011 (ip), vehicle: carboxymethylcellulose (CMC)) was 75 % of control and the T/C [1] was 47 % of control. For the same compound, the T/C (dose: 6.0 mg/kg/injection, schedule: Q01DX011 (ip), vehicle: carboxymethylcellulose (CMC)) was 11 % of control, the T/C (dose: 12.0 mg/kg/injection, schedule: Q01DX011 (ip), vehicle: carboxymethylcellulose (CMC)) was 6 % of control and the T/C (dose: 25.0 mg/kg/injection, schedule: Q01DX011 (ip), vehicle: carboxymethylcellulose (CMC)) was 4 % of control. For the same compound, the T/C (dose: 50.0 mg/kg/injection, schedule: Q01DX011 (ip), vehicle: carboxymethylcellulose (CMC)) was 6 % of control and the T/C (dose: 100.0 mg/kg/injection, schedule: Q01DX011 (ip), vehicle: carboxymethylcellulose (CMC)) was 6 % of control.
In the case of `CS(=O)(=O)OCCC(=O)NCNC(=O)CCOS(C)(=O)=O`, the T/C (dose: 7.0 mg/kg/injection, schedule: Q01DX011 (ip), vehicle: carboxymethylcellulose (CMC)) is reported as 77 % of control, the T/C [2] is reported as 79 % of control and the T/C (dose: 14.0 mg/kg/injection, schedule: Q01DX011 (ip), vehicle: carboxymethylcellulose (CMC)) is reported as 42 % of control. The T/C (dose: 25.0 mg/kg/injection, schedule: Q01DX011 (ip), vehicle: methylcellulose (MC)) was 39 % of control, the T/C [3] was 4 % of control and the T/C (dose: 28.0 mg/kg/injection, schedule: Q01DX011 (ip), vehicle: methylcellulose (MC)) was 5 % of control. For the same compound, the T/C (dose: 50.0 mg/kg/injection, schedule: Q01DX011 (ip), vehicle: methylcellulose (MC)) was 3 % of control.
For `CCCNc1ncnc2c1cnn2C1CCCCO1` (stereo not given), the T/C (dose: 3.12 mg/kg/injection, schedule: Q01DX011 (ip), vehicle: methylcellulose (MC)) was 67 % of control, the T/C (dose: 6.25 mg/kg/injection, schedule: Q01DX011 (ip), vehicle: methylcellulose (MC)) was 54 % of control and the T/C [2] was 44 % of control.
`Cc1cc(NC(=O)c2ccc(C(=O)Nc3ccc(N=Nc4cc(S(=O)(=O)O)c5cccc(S(=O)(=O)O)c5c4)c(C)c3)cc2)ccc1N=Nc1cc(S(=O)(=O)O)c2cccc(S(=O)(=O)O)c2c1` was tested, and the T/C (dose: 30.0 mg/kg/injection, schedule: Q01DX011 (ip), vehicle: carboxymethylcellulose (CMC)) was 114 % of control.
In the case of `CC(=O)N(C)c1ccccc1`, the T/C (dose: 12.5 mg/kg/injection, schedule: Q01DX011 (ip), vehicle: other) is reported as 69 % of control, the T/C (dose: 25.0 mg/kg/injection, schedule: Q01DX011 (ip), vehicle: other) is reported as 88 % of control and the T/C (dose: 50.0 mg/kg/injection, schedule: Q01DX011 (ip), vehicle: other) is reported as 73 % of control. The T/C (dose: 100.0 mg/kg/injection, schedule: Q01DX011 (ip), vehicle: other) was 95 % of control.
In the case of `O=C(CCBr)N1CCCN(C(=O)CCBr)CC1`, the T/C [3] is reported as 85 % of control, the T/C (dose: 57.0 mg/kg/injection, schedule: Q01DX011 (ip), vehicle: carboxymethylcellulose (CMC)) is reported as 60 % of control and the T/C (dose: 57.0 mg/kg/injection, schedule: Q01DX011 (ip), vehicle: methylcellulose (MC)) is reported as 58 % of control and 78 % of control. For the same compound, the T/C (dose: 113.0 mg/kg/injection, schedule: Q01DX011 (ip), vehicle: carboxymethylcellulose (CMC)) was 16 % of control and the T/C (dose: 113.0 mg/kg/injection, schedule: Q01DX011 (ip), vehicle: methylcellulose (MC)) was 35 % of control.
For `CCCCOP(=S)(N1CC1)N1CC1`, the T/C (dose: 0.19 mg/kg/injection, schedule: Q01DX011 (ip), vehicle: other) was 44 % of control, the T/C (dose: 0.19 mg/kg/injection, schedule: Q01DX011 (ip), vehicle: saline) was 102 % of control and the T/C (dose: 0.37 mg/kg/injection, schedule: Q01DX011 (ip), vehicle: other) was 38 % of control. The T/C (dose: 0.37 mg/kg/injection, schedule: Q01DX011 (ip), vehicle: saline) was 97 % of control, the T/C (dose: 0.75 mg/kg/injection, schedule: Q01DX011 (ip), vehicle: carboxymethylcellulose (CMC)) was 73 % of control and the T/C (dose: 0.75 mg/kg/injection, schedule: Q01DX011 (ip), vehicle: other) was 26 % of control. For the same compound, the T/C (dose: 0.75 mg/kg/injection, schedule: Q01DX011 (ip), vehicle: saline) was 113 % of control, the T/C [1] was 78 % of control and the T/C (dose: 1.5 mg/kg/injection, schedule: Q01DX011 (ip), vehicle: other) was 14 % of control. For the same compound, the T/C (dose: 1.5 mg/kg/injection, schedule: Q01DX011 (ip), vehicle: saline) was 90 % of control, the T/C (dose: 3.0 mg/kg/injection, schedule: Q01DX011 (ip), vehicle: carboxymethylcellulose (CMC)) was 23 % of control and the T/C (dose: 3.0 mg/kg/injection, schedule: Q01DX011 (ip), vehicle: other) was 7 % of control. The T/C (dose: 3.0 mg/kg/injection, schedule: Q01DX011 (ip), vehicle: saline) was 42 % of control, the T/C (dose: 3.0 mg/kg/injection, schedule: Q## X000 (ip), vehicle: saline) was 460 % of control and the T/C (dose: 6.0 mg/kg/injection, schedule: Q## X000 (ip), vehicle: saline) was 153 % of control. For the same compound, the T/C (dose: 12.0 mg/kg/injection, schedule: Q## X000 (ip), vehicle: saline) was 23 % of control.
For `CCCCNc1cc(=O)[nH]c(N)n1`, the T/C (dose: 55.0 mg/kg/injection, schedule: Q01DX011 (ip), vehicle: methylcellulose (MC)) was 53 % of control.
